System: Japanese women
Assay: Contingent negative variation (CNV) amplitude measurement, method of Torii
Type: in vivo, human
Conditions: used in perfume compositions in an amount of less than 0.5% by weight, preferably 0.01% to 0.4% by weight
Excerpt: (CNV) according to the method of Torii [Proceedings of the 19th Japanese Symposium on Taste and Smell, 65 (1985)], which is also described in detail in U.S. Pat. No. 6,268,333.
The contingent negative variations are small variations in cerebral potential related to psychological processes, such as attention, waiting, anticipation etc. as well as being related to changes in the state of consciousness.
According to this method, a luminous signal is emitted approximately 2 seconds after the audible signal, and the subject must switch off the luminous signal by pressing on the button as soon as the luminous signal is recognised.
When carrying out these experiments, a sample to be tested (perfume composition) or a reference sample (with no smell) is placed around 10 centimeters from the nose of the subject taking part in these experiments in such a way as to ensure that the compound is recognised at all times via the said subject's respiration. […]
The contingent negative variations measured during an early period of time going from 400 msec to 1000 msec after the audible signal and the amplitude of these variations is expressed with respect to a reference sample to which a value of 100% is given. […]
The amplitude of the contingent negative variations was determined for each woman taking part in the test during the early period going from 400 msec to 1000 msec after the audible signal.

## COc1cc(OC)cc(OC)c1 [1,3,5-trimethoxybenzene]
  sedative effect by measurement of contingent negative variations: sedative effect
